Measurements reported in publication PMC5748833, “Synthesis and Biological Evaluation of Novel Hybrid Molecules Containing Purine, Coumarin and Isoxazoline or Isoxazole Moieties” (The Open Medicinal Chemistry Journal, 2017).

How the values were obtained:
[1] = target: T1, rat monoamine oxidase B (Rattus norvegicus, UniProt P19643); assay: Inhibition of MAO-B (spectrofluorimetric method); assay type: biochemical; conditions: for MAO-B (%) @ 10μΜ: 10 μM compound
T1 construct: from tissue
T1 sequence (P19643 1-520): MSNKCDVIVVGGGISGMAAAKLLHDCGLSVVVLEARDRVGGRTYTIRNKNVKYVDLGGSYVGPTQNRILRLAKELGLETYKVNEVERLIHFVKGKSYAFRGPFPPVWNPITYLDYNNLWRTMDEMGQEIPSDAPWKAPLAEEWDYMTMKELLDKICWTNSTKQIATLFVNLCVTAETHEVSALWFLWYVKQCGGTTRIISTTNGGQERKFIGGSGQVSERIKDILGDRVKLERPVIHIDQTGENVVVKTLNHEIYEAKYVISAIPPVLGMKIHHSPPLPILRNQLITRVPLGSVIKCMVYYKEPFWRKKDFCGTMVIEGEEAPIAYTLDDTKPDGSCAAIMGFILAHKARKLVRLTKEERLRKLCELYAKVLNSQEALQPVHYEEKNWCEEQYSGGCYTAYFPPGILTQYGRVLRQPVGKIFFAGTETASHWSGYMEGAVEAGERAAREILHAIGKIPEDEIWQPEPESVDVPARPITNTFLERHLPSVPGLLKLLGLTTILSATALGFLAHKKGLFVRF
Excerpt: 2.2.2.6 Inhibition Study on MAOs in vitro
Inhibition of rat monoamine oxidase A and B was studied by means of a spectrofluorimetric method as previously detailed.

[2] = target: T2, soybean lipoxygenase (Glycine max, UniProt P08170); assay: Soybean lipoxygenase inhibition in vitro; assay type: biochemical; conditions: for IC50: read-out: LOX IC50 μΜ
T2 construct: purchased Sigma Chemical, Co. (St. Louis, MO, USA)
T2 sequence (P08170 1-839): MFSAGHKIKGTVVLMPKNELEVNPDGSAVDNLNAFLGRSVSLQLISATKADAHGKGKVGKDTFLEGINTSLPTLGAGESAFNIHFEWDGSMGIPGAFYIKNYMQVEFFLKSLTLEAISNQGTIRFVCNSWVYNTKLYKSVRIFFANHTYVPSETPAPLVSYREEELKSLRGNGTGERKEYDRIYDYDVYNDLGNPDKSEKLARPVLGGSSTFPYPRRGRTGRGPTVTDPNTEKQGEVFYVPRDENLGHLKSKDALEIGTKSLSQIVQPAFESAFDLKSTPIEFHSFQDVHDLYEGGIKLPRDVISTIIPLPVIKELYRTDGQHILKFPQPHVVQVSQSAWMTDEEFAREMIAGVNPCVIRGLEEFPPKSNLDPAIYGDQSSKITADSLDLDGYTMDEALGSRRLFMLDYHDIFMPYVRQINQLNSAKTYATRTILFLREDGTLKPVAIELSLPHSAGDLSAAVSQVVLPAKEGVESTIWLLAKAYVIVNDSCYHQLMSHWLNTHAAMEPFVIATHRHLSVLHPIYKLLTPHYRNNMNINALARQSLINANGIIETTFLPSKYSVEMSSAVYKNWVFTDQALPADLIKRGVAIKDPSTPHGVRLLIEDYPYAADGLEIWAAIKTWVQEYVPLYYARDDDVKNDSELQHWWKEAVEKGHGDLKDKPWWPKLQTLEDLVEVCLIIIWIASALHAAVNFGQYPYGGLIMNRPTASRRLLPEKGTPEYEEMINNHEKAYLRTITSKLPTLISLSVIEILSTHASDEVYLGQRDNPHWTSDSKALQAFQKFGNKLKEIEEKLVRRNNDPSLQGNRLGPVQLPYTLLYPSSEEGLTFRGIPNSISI

Structure (SMILES)	MAO-B (%) @ 10μΜ [1]	IC50 [2]	IC50 ([1]; read-out: MAO-B IC50 μΜ)	%LOX @ 100μΜ ([2]; 100 μM compound)
O=c1cc(OCC2CC(Cn3cnc4c(N5CCCCC5)ncnc43)=NO2)c2ccccc2o1 (stereo not drawn) [4f]	no	53 µM	–	–
Cc1cc(=O)oc2ccc(OCC3=NOC(Cn4cnc5c(Cl)ncnc54)C3)cc12 (stereo not drawn) [11b]	–	–	9.5 µM	no
O=c1cc(OCc2cc(Cn3cnc4c(N5CCOCC5)ncnc43)no2)c2ccccc2o1 [13i]	9%	76 µM	–	–
